From ChEMBL document CHEMBL1949508, “The selective cytotoxic activity in breast cancer cells by an anthranilic alcohol-derived acyclic 5-fluorouracil O,N-acetal is mediated by endoplasmic reticulum stress-induced apoptosis” (Eur J Med Chem, 2012)

Assays:
MCF7 [1] = experiment: Antiproliferative activity against human MCF7 cells after 3 days by SRB assay; format: functional, cell-based; conditions: MCF7, 72 h
MCF-10A [2] = experiment: Cytotoxicity against human MCF10A cells after 3 days by SRB assay; format: cell-based; conditions: 72 h
MCF7 [3] = experiment: Antiproliferative activity against human MCF7 cells assessed as cell viability at 1.09 uM after […] by SRB assay (reference value: 96.35 +/- 1.32%); format: functional; conditions: read-out: Activity
[4] = Antiproliferative activity against human MCF10A cells assessed as viable cells at 37.67 uM after […] by SRB assay (reference value: 98.46 +/- 3.2%); format: cell-based, MCF-10A; conditions: read-out: Activity
MCF7 [5] = experiment: Induction of apoptosis in human MCF7 cells assessed as apoptotic cells at 1.09 uM after 48 hrs by annexinV-FITC/PI-based flow cytometry relative to control; format: functional
MCF-10A [6] = experiment: Induction of apoptosis in human MCF10A cells assessed as apoptotic cells at 37.67 uM after 48 hrs by annexinV-FITC/PI-based flow cytometry relative to control; format: cell-based
MCF7 [7] = experiment: Induction of apoptosis in human MCF7 cells assessed as early apoptotic cells at 1.09 uM after 48 hrs by annexinV-FITC/PI-based flow cytometry (reference value: 3.27 +/- 0.67%); format: functional
MCF-10A [8] = experiment: Induction of apoptosis in human MCF10A cells assessed as early apoptotic cells at 37.67 uM after 48 hrs by annexinV-FITC/PI-based flow cytometry (reference value: 0.73 +/- 0.23%); format: cell-based
MCF7 [9] = experiment: Induction of apoptosis in human MCF7 cells assessed as late apoptotic cells at 1.09 uM after 48 hrs by annexinV-FITC/PI-based flow cytometry (reference value: 0.11 +/- 0.02%); format: functional
MCF-10A [10] = experiment: Induction of apoptosis in human MCF10A cells assessed as late apoptotic cells at 37.67 uM after 48 hrs by annexinV-FITC/PI-based flow cytometry (reference value: 0.21 +/- 0.1%); format: cell-based
MCF7 [11] = experiment: Induction of necrosis in human MCF7 cells assessed as necrotic cells at 1.09 uM after 48 hrs by annexinV-FITC/PI-based flow cytometry (reference value: 0.27 +/- 0.01%); format: functional
MCF-10A [12] = experiment: Induction of necrosis in human MCF10A cells assessed as necrotic cells at 37.67 uM after 48 hrs by annexinV-FITC/PI-based flow cytometry (reference value: 0.6 +/- 0.13%); format: cell-based
MCF7 [13] = experiment: Upregulation of BBC3 gene in human MCF7 cells at 1.09 uM after 48 hrs by microarray hybridization relative to control; format: functional
MCF7 [14] = experiment: Upregulation of MTL5 gene in human MCF7 cells at 1.09 uM after 48 hrs by microarray hybridization relative to control; format: functional
MCF7 [15] = experiment: Upregulation of BMF gene in human MCF7 cells at 1.09 uM after 48 hrs by microarray hybridization relative to control; format: functional
MCF7 [16] = experiment: Upregulation of BNIP3L gene in human MCF7 cells at 1.09 uM after 48 hrs by microarray hybridization relative to control; format: functional
MCF7 [17] = experiment: Upregulation of BNIP3 gene in human MCF7 cells at 1.09 uM after 48 hrs by microarray hybridization relative to control; format: functional
MCF7 [18] = experiment: Upregulation of GADD45A gene in human MCF7 cells at 1.09 uM after 48 hrs by microarray hybridization relative to control; format: functional
MCF7 [19] = experiment: Upregulation of CARD14 gene in human MCF7 cells at 1.09 uM after 48 hrs by microarray hybridization relative to control; format: functional
MCF7 [20] = experiment: Upregulation of GADD45B gene in human MCF7 cells at 1.09 uM after 48 hrs by microarray hybridization relative to control; format: functional
MCF7 [21] = experiment: Upregulation of DNASE1 gene in human MCF7 cells at 1.09 uM after 48 hrs by microarray hybridization relative to control; format: functional
MCF7 [22] = experiment: Upregulation of NOXA gene in human MCF7 cells at 1.09 uM after 48 hrs by microarray hybridization relative to control; format: functional
MCF7 [23] = experiment: Downregulation of UNC5C gene in human MCF7 cells at 1.09 uM after 48 hrs by microarray hybridization relative to control; format: functional
MCF7 [24] = experiment: Downregulation of CARD9 gene in human MCF7 cells at 1.09 uM after 48 hrs by microarray hybridization relative to control; format: functional
MCF7 [25] = experiment: Downregulation of AVEN gene in human MCF7 cells at 1.09 uM after 48 hrs by microarray hybridization relative to control; format: functional
MCF7 [26] = experiment: Downregulation of BCL2 gene in human MCF7 cells at 1.09 uM after 48 hrs by microarray hybridization relative to control; format: functional
MCF7 [27] = experiment: Downregulation of BAG2 gene in human MCF7 cells at 1.09 uM after 48 hrs by microarray hybridization relative to control; format: functional
MCF7 [28] = experiment: Downregulation of CD14 gene in human MCF7 cells at 1.09 uM after 48 hrs by microarray hybridization relative to control; format: functional
MCF7 [29] = experiment: Downregulation of E2F1 gene in human MCF7 cells at 1.09 uM after 48 hrs by microarray hybridization relative to control; format: functional
MCF7 [30] = experiment: Downregulation of […] gene in human MCF7 cells at 1.09 uM after 48 hrs by microarray hybridization relative to control; format: functional
MCF7 [31] = experiment: Downregulation of TP5313 gene in human MCF7 cells at 1.09 uM after 48 hrs by microarray hybridization relative to control; format: functional

In the case of `COC(CN(c1ccccc1CO)S(=O)(=O)c1ccccc1N)n1cc(F)c(=O)[nH]c1=O` (racemic), the IC50 (MCF7 [1]) is reported as 1.09 µM, the IC50 (MCF-10A [2]) is reported as 37.7 µM and the viability at 1.09 µM (MCF7 [3]) is reported as 6.35%. For the same compound, the viability at 37.67 µM [4] was 30.9%, the Activity (MCF7 [5]) was 90.73% and the Activity (MCF-10A [6]) was 19.86%. It also gave an Activity (MCF7 [7]) of 13.73%, an Activity (MCF-10A [8]) of 2.57% and an Activity (MCF7 [9]) of 77.4%. The Activity (MCF-10A [10]) was 17.29%, the Activity (MCF7 [11]) was 2.52% and the Activity (MCF-10A [12]) was 49.24%. For the same compound, the “fold change (FC)” value (MCF7 [13]) was 3.78, the “fold change (FC)” value (MCF7 [14]) was 3.75 and the “fold change (FC)” value (MCF7 [15]) was 3. For the same compound, the “fold change (FC)” value (MCF7 [16]) was 2.84, the “fold change (FC)” value (MCF7 [17]) was 2.65 and the “fold change (FC)” value (MCF7 [18]) was 2.54. The “fold change (FC)” value (MCF7 [19]) was 2.34, the “fold change (FC)” value (MCF7 [20]) was 2.2 and the “fold change (FC)” value (MCF7 [21]) was 2.07. The “fold change (FC)” value (MCF7 [22]) was 2.02, the “fold change (FC)” value (MCF7 [23]) was -2.01 and the “fold change (FC)” value (MCF7 [24]) was -2.11. The “fold change (FC)” value (MCF7 [25]) was -2.21, the “fold change (FC)” value (MCF7 [26]) was -2.26 and the “fold change (FC)” value (MCF7 [27]) was -2.32. The “fold change (FC)” value (MCF7 [28]) was -2.61, the “fold change (FC)” value (MCF7 [29]) was -2.61 and the “fold change (FC)” value (MCF7 [30]) was -2.62. The “fold change (FC)” value (MCF7 [31]) was -2.68.
